Experimental data from patent publication US10005776B2, “Compounds as NIK inhibitors” (Janssen Pharmaceutica NV, priority 2014, dated 2018).

Assays:
JJN-3 cells = test: Antiproliferative activity on JJN-3 cells (CellTiter-Glo); type: cell-based, human; settings: 72 hr treatment, averaged values
Protocol: (§1) Determination of Antiproliferative Activity on LP-1, L-363 and JJN-3 Cells
(§2) All compounds tested were dissolved in DMSO and further dilutions were made in culture medium. Final DMSO concentration was 0.3% (v/v) in cell proliferation assays. Viability was assessed using CellTiter-Glo cell viability assay kit (Promega). The human LP-1, L-363 and JJN-3 cells (DSMZ) were cultured in RPMI 1640 medium supplemented with 2 mM L-glutamine, and 10% fetal calf serum (PAA). Cells were routinely kept as suspension cells at 37° C. in a humidified 5% CO2 atmosphere. Cells were passaged at a seeding density of 0.2×10^6/ml twice a week. Cells were seeded in black tissue culture treated 96-well plates (Perkin Elmer). Densities used for plating ranged from 2,000 to 6,000 cells per well in a total volume of 75 μl medium. After twenty four hours, drugs and/or solvents were added (25 μl) to a final volume of 100 μl. Following 72 hr of treatment plates were removed from the incubator and allowed to equilibrate to room temperature for approx 10 min. 100 μl CellTiter-Glo reagent was added to each well that was then covered (Perkin Elmer Topseal) and shaken on plate shaker for 10 min. Luminescence was measured on a HTS Topcount (Perkin Elmer). Within an experiment, the results for each treatment were the mean of 2 replicate wells. For initial screening purposes, compounds were tested using a 9 point dilution curve (serial 1:3 dilutions). For each experiment, controls (containing no drug) and a blank incubation (containing cells read at the time of compound addition) were run in parallel. The blank value was subtracted from all control and sample values. For each sample, the mean value for cell growth (in relative light units) was expressed as a percentage of the mean value for cell growth of the control.

L-363 cells = test: Antiproliferative activity on L-363 cells (CellTiter-Glo); type: cell-based, human; settings: 72 hr treatment, averaged values
Protocol: as §1, §2

[1] = target: Recombinant Human NF-kappaB-Inducing Kinase (NIK/MAP3K14) (Homo sapiens, UniProt Q99558); test: Inhibition of auto-phosphorylation of recombinant human NIK/MAP3K14 (AlphaScreen); type: biochemical; settings: 25 microM ATP, 0.2 nM GST-tagged NIK/MAP3K14, 1 h at 25° C.; averaged over all measurements on all batches; read-out: Alpha-Screen IC50
Protocol: Inhibition of Auto-Phosphorylation of Recombinant Human NF-kappaB-Inducing Kinase (NIK/MAP3K14) Activity (AlphaScreen®)
NIK/MAP3K14 auto-phosphorylation activity was measured using the AlphaScreen® (αscreen) format (Perkin Elmer). All compounds tested were dissolved in dimethyl sulfoxide (DMSO) and further dilutions were made in assay buffer. Final DMSO concentration was 1% (v/v) in assays. Assay buffer was 50 mM Tris pH 7.5 containing 1 mM EGTA (ethylene glycol tetraacetic acid), 1 mM DTT (dithiothreitol), 0.1 mM Na3VO4, 5 mM MgCl2, 0.01% Tween® 20. Assays were carried out in 384 well Alphaplates (Perkin Elmer). Incubations consisted of compound, 25 microM Adenosine-5′-triphosphate (ATP), and 0.2 nM NIK/MAP3K14. Incubations were initiated by addition of GST-tagged NIK/MAP3K14 enzyme, carried out for 1 h at 25° C. and terminated by addition of stop buffer containing anti-phospho-IKK Ser176/180 antibody. Protein A Acceptor and Glutathione-Donor beads were added before reading using an EnVision® Multilabel Plate Reader (Perkin Elmer). Signal obtained in the wells containing blank samples was subtracted from all other wells and IC50's were determined by fitting a sigmoidal curve to % inhibition of control versus Log10 compound concentration.

LP-1 cells = test: Antiproliferative activity on LP-1 cells (CellTiter-Glo); type: cell-based, human; settings: 72 hr treatment, averaged values
Protocol: as §1, §2

Sequence of Recombinant Human NF-kappaB-Inducing Kinase (NIK/MAP3K14) (Q99558 whole entry): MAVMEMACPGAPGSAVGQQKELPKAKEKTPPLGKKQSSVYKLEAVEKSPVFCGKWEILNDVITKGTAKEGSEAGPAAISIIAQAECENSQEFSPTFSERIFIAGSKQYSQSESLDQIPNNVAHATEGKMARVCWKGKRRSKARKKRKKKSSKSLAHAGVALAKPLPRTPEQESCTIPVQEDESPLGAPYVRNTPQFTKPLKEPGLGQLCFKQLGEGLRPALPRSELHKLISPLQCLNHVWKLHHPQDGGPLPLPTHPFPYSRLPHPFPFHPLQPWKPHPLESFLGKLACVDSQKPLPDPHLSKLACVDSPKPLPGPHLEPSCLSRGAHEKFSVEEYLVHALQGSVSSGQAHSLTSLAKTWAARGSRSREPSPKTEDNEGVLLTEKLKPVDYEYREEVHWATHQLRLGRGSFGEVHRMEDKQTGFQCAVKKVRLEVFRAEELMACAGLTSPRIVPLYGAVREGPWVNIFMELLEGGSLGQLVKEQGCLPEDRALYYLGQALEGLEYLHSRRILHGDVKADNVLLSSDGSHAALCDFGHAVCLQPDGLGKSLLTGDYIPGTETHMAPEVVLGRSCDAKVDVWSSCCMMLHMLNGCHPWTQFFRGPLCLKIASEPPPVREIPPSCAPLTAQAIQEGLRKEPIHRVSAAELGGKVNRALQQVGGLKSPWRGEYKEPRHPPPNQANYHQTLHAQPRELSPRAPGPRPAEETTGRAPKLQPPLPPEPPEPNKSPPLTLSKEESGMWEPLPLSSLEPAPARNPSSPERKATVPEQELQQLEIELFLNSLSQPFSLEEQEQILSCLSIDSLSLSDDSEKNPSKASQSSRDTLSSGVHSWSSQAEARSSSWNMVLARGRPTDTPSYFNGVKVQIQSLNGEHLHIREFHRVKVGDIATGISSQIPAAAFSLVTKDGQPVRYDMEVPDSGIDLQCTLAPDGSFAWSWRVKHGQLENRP

SMILES	IC50 [1] [µM]	EC50 (JJN-3 cells) [µM]	EC50 (L-363 cells) [µM]	EC50 (LP-1 cells) [µM]	EC50 (LP-1 cells; Homo sapiens, LP-1, 72 h) [µM]	EC50 (JJN-3 cells; Homo sapiens, JJN-3, 72 h) [µM]	EC50 (L-363 cells; Homo sapiens, L-363, 72 h) [µM]
COCCCN1CCC(n2cc(-c3nc(N)ncc3F)c3cc(C#CC(C)(O)C4CC4)ncc32)C1 (stereo not drawn) [Compound 8]	0.03				0.158	0.119	0.08
CC(O)(C#Cc1cc2c(-c3nc(N)ncc3F)c[nH]c2c(C2CC2)n1)C1CC1 (single isomer, unassigned) [Compound 13]	0.029				0.015	0.007	0.004
CC(C)N1CCC(n2cc(-c3nc(N)ncc3F)c3cc(C#CC(C)(O)C4CC4)ncc32)C1 (stereo not drawn) [Compound 3]	0.155				0.147	0.133	0.056
CC(O)(C#Cc1cc2c(-c3nc(N)ncc3F)c[nH]c2c(C2CC2)n1)C1CC1 (stereo not drawn) [Compound 1]	0.095				0.019	0.008	0.004
CC(O)(C#Cc1cc2c(-c3nc(N)ncc3F)cn(C3CN(CCC(F)(F)F)C3)c2cn1)C1CC1 (stereo not drawn) [Compound 5]	0.074				0.377	0.227	0.175
Cc1nc(C(C)(O)C#Cc2cc3c(-c4nc(N)ncc4F)cn(C4CN(C5CC5)C4)c3cn2)no1 (stereo not drawn) [Compound 15]	0.144				14.4	3.22	2.72
[2H]C([2H])([2H])C(O)(C#Cc1cc2c(-c3nc(N)ncc3F)cn(C3CCCN(CCC)C3)c2cn1)C([2H])([2H])[2H] (stereo not drawn) [Compound 12]	0.056	0.038	0.042	0.076			
CC(C)n1cc(-c2nc(N)ncc2OCCN2CCOCC2)c2cc(C#CC(C)(O)C3CC3)ncc21 (stereo not drawn) [Compound 4]	0.15				1.19	0.208	0.152
CCCCN1CCC(n2cc(-c3nc(N)ncc3F)c3cc(C#CC(C)(O)C4CC4)ncc32)C1 (stereo not drawn) [Compound 11]	0.021				0.052	0.062	0.04
CCN1CCC(n2cc(-c3nc(N)ncc3F)c3cc(C#CC(C)(O)C4CC4)nc(C)c32)C1 (stereo not drawn) [Compound 10]	0.058				0.02	0.022	0.01
CCCN1CCC(n2cc(-c3nc(N)ncc3F)c3cc(C#CC(C)(O)C4CC4)ncc32)C1 (stereo not drawn) [Compound 6]	0.029				0.069	0.062	0.031
COCCN1CCC(n2cc(-c3nc(N)ncc3F)c3cc(C#CC(C)(O)C4CC4)ncc32)C1 (stereo not drawn) [Compound 7]	0.026				0.32	0.222	0.144
Cc1nc(C#CC(C)(O)C2CC2)cc2c(-c3nc(N)ncc3F)c[nH]c12 (stereo not drawn) [Compound 2]	0.007				0.039	0.007	0.005
CC(O)(C#Cc1cc2c(-c3nc(N)ncc3F)cn(C3CN(C4CC4)C3)c2cn1)c1nccs1 (stereo not drawn) [Compound 14]	0.016				3.98	0.631	1.22
CC(O)C#Cc1cc2c(-c3nc(N)ncc3F)cn(C3CN(C4CC4)C3)c2cn1 (stereo not drawn) [Compound 9]	0.069				0.131	0.055	0.037

Second part, led by results:

IC50 [1] [µM]	SMILES	EC50 (JJN-3 cells) [µM]	EC50 (L-363 cells) [µM]	EC50 (LP-1 cells) [µM]	EC50 (LP-1 cells; Homo sapiens, LP-1, 72 h) [µM]	EC50 (JJN-3 cells; Homo sapiens, JJN-3, 72 h) [µM]	EC50 (L-363 cells; Homo sapiens, L-363, 72 h) [µM]
0.02	CC(O)(C#Cc1cc2c(-c3nc(N)ncc3F)c[nH]c2cn1)c1nccs1 (single isomer, unassigned) [Compound 30]	2.08	4.76	11.6			
0.016	CC(O)(C#Cc1cc2c(-c3nc(N)ncc3F)cn(C3CN(C4CC4)C3)c2cn1)c1nccs1 (single isomer, unassigned) [Compound 28]	0.408	0.402		4.26		
0.095	Nc1ncc(F)c(-c2cn(C3CN(C4CC4)C3)c3cnc(C#CC4(O)CCCC4)cc23)n1 [Compound 21]				1	0.464	0.408
0.002	CC(O)(C#Cc1cc2c(-c3nc(N)ncc3F)c[nH]c2cn1)c1nccs1 (single isomer, unassigned) [Compound 31]	0.634	1.21	5.74			
0.189	CC(O)(C#Cc1cc2c(-c3nc(N)ncc3F)cn(C3CN(C4CC4)C3)c2cn1)c1ncccn1 (stereo not drawn) [Compound 17]				29	6.72	8.26
0.09	[2H]C([2H])([2H])C(O)(C#Cc1cc2c(-c3nc(N)ncc3F)cn(C3CCCN(CCC)C3)c2cn1)C([2H])([2H])[2H] (single isomer, unassigned) [Compound 24]	0.135	0.118	0.219			
0.018	CCCCN1CCC(n2cc(-c3nc(N)ncc3F)c3cc(C#CC(C)(O)C4CC4)ncc32)C1 (single isomer, unassigned) [Compound 26]				0.114	0.101	0.063
0.026	CCCCN1CCC(n2cc(-c3nc(N)ncc3F)c3cc(C#CC(C)(O)C4CC4)ncc32)C1 (single isomer, unassigned) [Compound 27]	0.092	0.053	0.1			
0.002	Nc1ncc(F)c(-c2c[nH]c3cnc(C#CC4(O)CCCC4)cc23)n1 [Compound 20]				1.12	0.152	0.126
0.067	Cc1cc(C(C)(O)C#Cc2cc3c(-c4nc(N)ncc4F)c[nH]c3c(C3CC3)n2)no1 (stereo not drawn) [Compound 23]				1.28	0.442	0.368
0.037	Nc1ncc(F)c(-c2c[nH]c3c(C4CC4)nc(C#CC4(O)CCCC4)cc23)n1 [Compound 22]				0.11	0.037	0.024
0.082	[2H]C([2H])([2H])C(O)(C#Cc1cc2c(-c3nc(N)ncc3F)cn(C3CCCN(CCC)C3)c2cn1)C([2H])([2H])[2H] (single isomer, unassigned) [Compound 25]	0.102	0.066	0.163			
0.735	CC(O)(C#Cc1cc2c(-c3nc(N)ncc3F)cn(C3CN(C4CC4)C3)c2cn1)c1nccs1 (single isomer, unassigned) [Compound 29]	1.93	3.08	3.53			
0.379	Cc1cc(C(C)(O)C#Cc2cc3c(-c4nc(N)ncc4F)c[nH]c3cn2)no1 (single isomer, unassigned) [Compound 32]	4.34	5.5	19.6			
0.003	Cc1cc(C(C)(O)C#Cc2cc3c(-c4nc(N)ncc4F)c[nH]c3cn2)no1 (single isomer, unassigned) [Compound 33]	0.593	0.472	4.12			
0.003	CC(O)(C#Cc1cc2c(-c3nc(N)ncc3F)c[nH]c2cn1)c1nccs1 (stereo not drawn) [Compound 19]				7.62	1.01	1.27
0.034	Cc1cc(C(C)(O)C#Cc2cc3c(-c4nc(N)ncc4F)cn(C4CN(C5CC5)C4)c3cn2)no1 (stereo not drawn) [Compound 16]				1.8	0.951	0.811
0.01	Cc1cc(C(C)(O)C#Cc2cc3c(-c4nc(N)ncc4F)c[nH]c3cn2)no1 (stereo not drawn) [Compound 18]				5.03	1.19	1.09
